{"source": "patent US5030760A", "about": "“Tetrahydrophthalimides, and their production and use” (Sumitomo Chemical Company, Ltd., priority 1981, dated 1991); for Herbicidal activity, Arrowhead: ranges in brackets are in %; for Herbicidal activity, Barnyardgrass: ranges in brackets are in %; for Herbicidal activity, Broad-leaved weed: ranges in brackets are in %; for Herbicidal activity, Green foxtail: ranges in brackets are in %; for Herbicidal activity, Hardstem bulrush: ranges in brackets are in %; for Herbicidal activity, Hemp sesbania: ranges in brackets are in %; for Herbicidal activity, Jimsonweed: ranges in brackets are in %; for Herbicidal activity, Johnsongrass: ranges in brackets are in %; for Herbicidal activity, Large crabgrass: ranges in brackets are in %; for Herbicidal activity, Morningglory: ranges in brackets are in %; for Herbicidal activity, Prickly sida: ranges in brackets are in %; for Herbicidal activity, Sicklepod: ranges in brackets are in %; for Herbicidal activity, Tall morningglory: ranges in brackets are in %; for Herbicidal activity, Velvetleaf: ranges in brackets are in %; for Herbicidal activity, Wild cat: ranges in brackets are in %; for Phytotoxicity, Corn: ranges in brackets are in %; for Phytotoxicity, Cotton: ranges in brackets are in %; for Phytotoxicity, Rice plant: ranges in brackets are in %; for Phytotoxicity, Soybean: ranges in brackets are in %", "key": {"corn [1]": {"test_system": "corn", "experiment": "Test Example 1, foliar treatment, phytotoxicity to corn; note: ranges in brackets are in %", "type": "in vivo", "details": "3 weeks", "how_it_was_run": "(§1)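 Crops and weeds sown in upland soil, greenhouse-grown 2 weeks, then sprayed on foliage with compound as emulsifiable concentrate in water plus spreading agent at 5 liters per are. Scored 3 weeks later from aerial fresh weight as percent of untreated plants, converted to a rating scale.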"}, "barnyardgrass [2]": {"test_system": "barnyardgrass", "experiment": "Test Example 1, foliar treatment, herbicidal activity", "type": "in vivo, Echinochloa crus-galli", "details": "3 weeks", "how_it_was_run": "as §1"}, "wild oat": {"test_system": "wild oat", "experiment": "Test Example 1, foliar treatment, herbicidal activity", "type": "in vivo, Avena fatua", "details": "3 weeks", "how_it_was_run": "as §1"}, "wild mustard": {"test_system": "wild mustard", "experiment": "Test Example 1, foliar treatment, herbicidal activity", "type": "in vivo, Brassica kaber", "details": "3 weeks", "how_it_was_run": "as §1"}, "velvetleaf [3]": {"test_system": "velvetleaf", "experiment": "Test Example 1, foliar treatment, herbicidal activity", "type": "in vivo, Abutilon theophrasti", "details": "3 weeks", "how_it_was_run": "as §1"}, "corn [4]": {"test_system": "corn", "experiment": "Test Example 4, pre-emergence treatment, phytotoxicity to corn", "type": "in vivo", "details": "20 days", "procedure": "(§2) The application of the tetrahydrophthalimides (I) as herbicides will be illustratively shown in the following Examples wherein the phytotoxicity to cultivated plants and the herbicidal activity on weeds were evaluated as follows: the aerial parts of the test plants were cut off and weighed (fresh weight); the percentage of the fresh weight of the treated plant to that of the untreated plant was calculated with the latter fresh weight taken as 100; and the crop damage and the herbicidal activity were evaluated by the standard given in the table below. The rating values of phytotoxicity, 0 and 1, and those of herbicidal effect, 5 and 4, are generally regarded as satisfactory to protect cultivated plants and control weeds, respectively. The rating values in the paddy field test alone were calculated from the dry weight of the test plants.\n(§3) Plastic beakers (diameter, 10 cm; height, 10 cm) were filled with upland field soil, and the seeds of corn, cotton and soybean and the seeds of morningglory, velvetleaf, Johnsongrass and green foxtail were separately sown in the beakers. A designed amount of the test compound was sprayed over the top by means of a small hand sprayer. After the spraying, the test plants were grown for 20 days in the greenhouse, and herbicidal activity and phytotoxicity were examined. In this pre-emergence treatment, the test compounds were formulated into an emulsifiable concentrate according to Preparation Example 2 and applied at a spray volume of 5 liters per are by dispersing it in water with the addition of a spreading agent."}, "cotton": {"test_system": "cotton", "experiment": "Test Example 4, pre-emergence treatment, phytotoxicity to cotton", "type": "in vivo", "details": "20 days", "procedure": "as §2, §3"}, "soybean [5]": {"test_system": "soybean", "experiment": "Test Example 4, pre-emergence treatment, phytotoxicity to soybean", "type": "in vivo", "details": "20 days", "procedure": "as §2, §3"}, "morningglory": {"test_system": "morningglory", "experiment": "Test Example 4, pre-emergence treatment, herbicidal activity", "type": "in vivo", "details": "20 days", "procedure": "as §2, §3"}, "velvetleaf [6]": {"test_system": "velvetleaf", "experiment": "Test Example 4, pre-emergence treatment, herbicidal activity", "type": "in vivo, Abutilon theophrasti", "details": "20 days", "procedure": "as §2, §3"}, "Johnsongrass [7]": {"test_system": "Johnsongrass", "experiment": "Test Example 4, pre-emergence treatment, herbicidal activity", "type": "in vivo, Sorghum halepense", "details": "20 days", "procedure": "as §2, §3"}, "green foxtail [8]": {"test_system": "green foxtail", "experiment": "Test Example 4, pre-emergence treatment, herbicidal activity", "type": "in vivo, Setaria viridis", "details": "20 days", "procedure": "as §2, §3"}, "soybean [9]": {"test_system": "soybean", "experiment": "Test Example 5, spraying over the top, phytotoxicity to soybean", "type": "in vivo", "details": "sprayed over the top, 20 days", "procedure": "as §2\n(§4) Plastic trays (35 cm×25 cm×15 cm) were filled with upland field soil, and the seeds of tall morningglory, velvetleaf, jimsonweed, sicklepod, hemp sesbania, prickly side, Johnsongrass, green foxtail and large crabgrass and the seeds of soybean were sown therein. A designed amount of the test compound formulated into a wettable powder according to Preparation Example 1 and dispersed in water was sprayed over the top by means of a small hand sprayer at a spray volume of 5 liters per are. After the spraying, the test plants were grown in greenhouse for 20 days, and phytotoxicity and herbicidal activity were examined."}, "tall morningglory": {"test_system": "tall morningglory", "experiment": "Test Example 5, spraying over the top, herbicidal activity", "type": "in vivo, Ipomoea purpurea", "details": "sprayed over the top, 20 days", "procedure": "as §2, §4"}, "velvetleaf [10]": {"test_system": "velvetleaf", "experiment": "Test Example 5, spraying over the top, herbicidal activity", "type": "in vivo, Abutilon theophrasti", "details": "sprayed over the top, 20 days", "procedure": "as §2, §4"}, "jimsonweed": {"test_system": "jimsonweed", "experiment": "Test Example 5, spraying over the top, herbicidal activity", "type": "in vivo, Datura stramonium", "details": "sprayed over the top, 20 days", "procedure": "as §2, §4"}, "hemp sesbania": {"test_system": "hemp sesbania", "experiment": "Test Example 5, spraying over the top, herbicidal activity", "type": "in vivo, Sesbania exaltator", "details": "sprayed over the top, 20 days", "procedure": "as §2, §4"}, "prickly sida": {"test_system": "prickly sida", "experiment": "Test Example 5, spraying over the top, herbicidal activity", "type": "in vivo, Sida spinosa", "details": "sprayed over the top, 20 days", "procedure": "as §2, §4"}, "sicklepod": {"test_system": "sicklepod", "experiment": "Test Example 5, spraying over the top, herbicidal activity", "type": "in vivo, Cassia obtusifolia", "details": "sprayed over the top, 20 days", "procedure": "as §2, §4"}, "green foxtail [11]": {"test_system": "green foxtail", "experiment": "Test Example 5, spraying over the top, herbicidal activity", "type": "in vivo, Setaria viridis", "details": "sprayed over the top, 20 days", "procedure": "as §2, §4"}, "large crabgrass": {"test_system": "large crabgrass", "experiment": "Test Example 5, spraying over the top, herbicidal activity", "type": "in vivo, Digitaria sanguinalis", "details": "sprayed over the top, 20 days", "procedure": "as §2, §4"}, "Johnsongrass [12]": {"test_system": "Johnsongrass", "experiment": "Test Example 5, spraying over the top, herbicidal activity", "type": "in vivo, Sorghum halepense", "details": "sprayed over the top, 20 days", "procedure": "as §2, §4"}, "rice plant": {"test_system": "rice plant", "experiment": "Test Example 6, paddy pot perfusion, phytotoxicity to rice plant", "type": "in vivo", "details": "3 weeks, dry weight", "procedure": "as §2\n(§5) Wagner's pots (1/5000 are) were filled with paddy field soil containing the seeds of broad-leaved weeds (e.g. monochoria, false pimpernel, toothcup) and the seeds of barnyardgrass and hardstem bulrush, and water was poured therein until the depth of water became 4 cm. Rice seedlings of the 3.5-leaf stage and the tubers of arrowhead were transplanted therein and grown for 2 days in a greenhouse. A designed amount of the test compound formulated in an emulsifiable concentrate according to Preparation Example 2 was applied to the pots by perfusion. Thereafter, the test plants were grown for an additional 3 weeks in the greenhouse, and herbicidal activity and phytotoxicity were examined. In this treatment, the emulsifiable concentrate was dispersed in water for application at a perfusion volume of 10 liters per are."}, "barnyardgrass [13]": {"test_system": "barnyardgrass", "experiment": "Test Example 6, paddy pot perfusion, herbicidal activity", "type": "in vivo, Echinochloa crus-galli", "details": "3 weeks, dry weight", "procedure": "as §2, §5"}, "broad-leaved weed": {"test_system": "broad-leaved weed", "experiment": "Test Example 6, paddy pot perfusion, herbicidal activity", "type": "in vivo, monochoria, false pimpernel, toothcup", "details": "3 weeks, dry weight", "procedure": "as §2, §5"}, "hardstem bulrush": {"test_system": "hardstem bulrush", "experiment": "Test Example 6, paddy pot perfusion, herbicidal activity", "type": "in vivo, Scirpus juncoides", "details": "2.5 g/are, 3 weeks, dry weight", "procedure": "as §2, §5"}, "arrowhead": {"test_system": "arrowhead", "experiment": "Test Example 6, paddy pot perfusion, herbicidal activity", "type": "in vivo, Sagittaria pygmaea", "details": "3 weeks, dry weight", "procedure": "as §2, §5"}}}
{"molecule": "COc1cc(N2C(=O)C3=C(CCCC3)C2=O)c(F)cc1Cl", "note": "[Compound No. 1]", "values": [{"measurement": "Phytotoxicity, Corn", "setting": "corn [1]; 1.25 g/are", "result": "0 (100)"}, {"measurement": "Phytotoxicity, Corn", "setting": "corn [1]; 5 g/are", "result": "1 (90-99)"}, {"measurement": "Herbicidal activity, Barnyardgrass", "setting": "barnyardgrass [2]; 1.25 g/are", "result": "1 (41-60)"}, {"measurement": "Herbicidal activity, Barnyardgrass", "setting": "barnyardgrass [2]; 5 g/are", "result": "5 (0)"}, {"measurement": "Herbicidal activity, Wild cat", "setting": "wild oat; 1.25 g/are", "result": "1 (41-60)"}, {"measurement": "Herbicidal activity, Wild cat", "setting": "wild oat; 5 g/are", "result": "5 (0)"}, {"measurement": "Herbicidal activity, Wild mustard", "setting": "wild mustard; 1.25 g/are", "result": "5 (0)"}, {"measurement": "Herbicidal activity, Wild mustard", "setting": "wild mustard; 5 g/are", "result": "5 (0)"}, {"measurement": "Herbicidal activity, Velvetleaf", "setting": "velvetleaf [3]; 1.25 g/are", "result": "5 (0)"}, {"measurement": "Herbicidal activity, Velvetleaf", "setting": "velvetleaf [3]; 5 g/are", "result": "5 (0)"}, {"measurement": "Phytotoxicity, Corn", "setting": "corn [4]; 2.5 g/are", "result": "1 (90-99)"}, {"measurement": "Phytotoxicity, Corn", "setting": "corn [4]; 10 g/are", "result": "2 (80-89)"}, {"measurement": "Phytotoxicity, Cotton", "setting": "cotton; 2.5 g/are", "result": "0 (100)"}, {"measurement": "Phytotoxicity, Cotton", "setting": "cotton; 10 g/are", "result": "2 (80-89)"}, {"measurement": "Phytotoxicity, Soybean", "setting": "soybean [5]; 2.5 g/are", "result": "0 (100)"}, {"measurement": "Phytotoxicity, Soybean", "setting": "soybean [5]; 10 g/are", "result": "0 (100)"}, {"measurement": "Herbicidal activity, Morningglory", "setting": "morningglory; 2.5 g/are", "result": "4 (1-10)"}, {"measurement": "Herbicidal activity, Morningglory", "setting": "morningglory; 10 g/are", "result": "5 (0)"}, {"measurement": "Herbicidal activity, Velvetleaf", "setting": "velvetleaf [6]; 2.5 g/are", "result": "5 (0)"}, {"measurement": "Herbicidal activity, Velvetleaf", "setting": "velvetleaf [6]; 10 g/are", "result": "5 (0)"}, {"measurement": "Herbicidal activity, Johnsongrass", "setting": "Johnsongrass [7]; 2.5 g/are", "result": "5 (0)"}, {"measurement": "Herbicidal activity, Johnsongrass", "setting": "Johnsongrass [7]; 10 g/are", "result": "5 (0)"}, {"measurement": "Herbicidal activity, Green foxtail", "setting": "green foxtail [8]; 2.5 g/are", "result": "4 (1-10)"}, {"measurement": "Herbicidal activity, Green foxtail", "setting": "green foxtail [8]; 10 g/are", "result": "5 (0)"}, {"measurement": "Phytotoxicity, Soybean", "setting": "soybean [9]; 3 g/are", "result": "0 (100)"}, {"measurement": "Phytotoxicity, Soybean", "setting": "soybean [9]; 9 g/are", "result": "0 (100)"}, {"measurement": "Herbicidal activity, Tall morningglory", "setting": "tall morningglory; 3 g/are", "result": "4 (1-10)"}, {"measurement": "Herbicidal activity, Tall morningglory", "setting": "tall morningglory; 9 g/are", "result": "5 (0)"}, {"measurement": "Herbicidal activity, Velvetleaf", "setting": "velvetleaf [10]; 3 g/are", "result": "5 (0)"}, {"measurement": "Herbicidal activity, Velvetleaf", "setting": "velvetleaf [10]; 9 g/are", "result": "5 (0)"}, {"measurement": "Herbicidal activity, Jimsonweed", "setting": "jimsonweed; 3 g/are", "result": "5 (0)"}, {"measurement": "Herbicidal activity, Jimsonweed", "setting": "jimsonweed; 9 g/are", "result": "5 (0)"}, {"measurement": "Herbicidal activity, Hemp sesbania", "setting": "hemp sesbania; 3 g/are", "result": "5 (0)"}, {"measurement": "Herbicidal activity, Hemp sesbania", "setting": "hemp sesbania; 9 g/are", "result": "5 (0)"}, {"measurement": "Herbicidal activity, Prickly sida", "setting": "prickly sida; 3 g/are", "result": "5 (0)"}, {"measurement": "Herbicidal activity, Prickly sida", "setting": "prickly sida; 9 g/are", "result": "5 (0)"}, {"measurement": "Herbicidal activity, Sicklepod", "setting": "sicklepod; 3 g/are", "result": "4 (1-10)"}, {"measurement": "Herbicidal activity, Sicklepod", "setting": "sicklepod; 9 g/are", "result": "5 (0)"}, {"measurement": "Herbicidal activity, Green foxtail", "setting": "green foxtail [11]; 3 g/are", "result": "5 (0)"}, {"measurement": "Herbicidal activity, Green foxtail", "setting": "green foxtail [11]; 9 g/are", "result": "5 (0)"}, {"measurement": "Herbicidal activity, Large crabgrass", "setting": "large crabgrass; 3 g/are", "result": "5 (0)"}, {"measurement": "Herbicidal activity, Large crabgrass", "setting": "large crabgrass; 9 g/are", "result": "5 (0)"}, {"measurement": "Herbicidal activity, Johnsongrass", "setting": "Johnsongrass [12]; 3 g/are", "result": "5 (0)"}, {"measurement": "Herbicidal activity, Johnsongrass", "setting": "Johnsongrass [12]; 9 g/are", "result": "5 (0)"}, {"measurement": "Phytotoxicity, Rice plant", "setting": "rice plant; 1.25 g/are", "result": "1 (90-99)"}, {"measurement": "Phytotoxicity, Rice plant", "setting": "rice plant; 2.5 g/are", "result": "1 (90-99)"}, {"measurement": "Herbicidal activity, Barnyardgrass", "setting": "barnyardgrass [13]; 1.25 g/are", "result": "4 (1-10)"}, {"measurement": "Herbicidal activity, Barnyardgrass", "setting": "barnyardgrass [13]; 2.5 g/are", "result": "5 (0)"}, {"measurement": "Herbicidal activity, Broad-leaved weed", "setting": "broad-leaved weed; 1.25 g/are", "result": "5 (0)"}, {"measurement": "Herbicidal activity, Broad-leaved weed", "setting": "broad-leaved weed; 2.5 g/are", "result": "5 (0)"}, {"measurement": "Herbicidal activity, Hardstem bulrush", "setting": "hardstem bulrush", "result": "4 (1-10)"}, {"measurement": "Herbicidal activity, Arrowhead", "setting": "arrowhead; 1.25 g/are", "result": "4 (1-10)"}, {"measurement": "Herbicidal activity, Arrowhead", "setting": "arrowhead; 2.5 g/are", "result": "5 (0)"}]}
